This is an account of results in patent publication US8809352B2, “Sulfonamides as inhibitors of Bcl-2 family proteins for the treatments of cancer” (Novartis AG, priority 2009, dated 2014).

What is called IC50 is the concentration that gives 50% inhibition.

Chain of BCL2 (P10415 whole entry): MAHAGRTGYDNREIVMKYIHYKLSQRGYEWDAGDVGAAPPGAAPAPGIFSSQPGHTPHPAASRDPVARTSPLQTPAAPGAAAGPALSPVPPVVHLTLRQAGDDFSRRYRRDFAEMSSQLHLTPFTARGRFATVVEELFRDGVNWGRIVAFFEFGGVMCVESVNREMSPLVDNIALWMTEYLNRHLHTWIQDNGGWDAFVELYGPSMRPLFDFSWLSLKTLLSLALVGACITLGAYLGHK

For this test, the target named is BCL2 (Homo sapiens, UniProt P10415). Kind of test: Biacore SPR solution inhibition assay of BCL-2 binding to peptide derivatized sensor surfaces. The conditions noted are these: SPR competition; 56 nM BCL2 pre-equilibrated with compound one hour; biotinylated BAK, BAD and NOXA peptide surfaces; 25° C. In short, it runs like this:
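Solution-competition SPR at 25 °C in HEPES pH 7.4 buffer with 1.25 mM DTT and 3% DMSO: compounds (6-point threefold series, 16 μM to 0.004 nM) pre-equilibrated 1 h with 56 nM BCL2, then injected over captured biotinylated BAK, BAD and NOXA peptide surfaces. Binding levels relative to BCL2-only controls gave % inhibition.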
For orientation: Surface plasmon resonance follows binding to a sensor surface in real time, without labels.
Take `[2H]C1(N2CCc3c(ncnc3NS(=O)(=O)c3ccc(N[C@H](CCN4CCOCC4)CSc4ccccc4)c(S(=O)(=O)C(F)(F)F)c3)C2)CCN(CC2=C(c3ccc(Cl)cc3)CC(C)(C)CC2)CC1` [Example 91, (R)-N-(7-(1-((2-(4-chlorophenyl)-4,4-dimethylcyclohex-1-enyl)methyl)-4-deuteropiperidin-4-yl)-5,6,7,8-tetrahydropyrido[3,4-d]pyrimidin-4-yl)-4-(4-morpholino-1-(phenylthio)butan-2-ylamino)-3-(trifluoromethylsulfonyl)benzenesulfonamide]: the half-maximal inhibitory concentration (IC50) was determined as 41 nM.

Take `O=S(=O)(Nc1nnc2n1CCN(C1CCN(Cc3ccccc3-c3ccc(Cl)cc3)CC1)CC2)c1ccc(N[C@H](CCN2CCOCC2)CSc2ccccc2)c(S(=O)(=O)C(F)(F)F)c1` [Example 92, N-{6-[1-(4′-Chloro-biphenyl-2-ylmethyl)-piperidin-4-yl]-5,6,7,8-tetrahydro-4H-1,2,3a,6-tetraaza-azulen-3-yl}-4-((R)-3-morpholin-4-yl-1-phenylsulfanylmethyl-propylamino)-3-trifluoromethanesulfonyl-benzenesulfonamide]: the IC50 was determined as 194 nM.

With `CN(C)CC[C@H](CSc1ccccc1)Nc1ccc(S(=O)(=O)Nc2nnc3n2CCN(C2CCN(Cc4ccccc4-c4ccc(Cl)cc4)CC2)CC3)cc1S(=O)(=O)C(F)(F)F` [Example 93, N-{6-[1-(4′-Chloro-biphenyl-2-ylmethyl)-piperidin-4-yl]-5,6,7,8-tetrahydro-4H-1,2,3a,6-tetraaza-azulen-3-yl}-4-((R)-3-dimethylamino-1-phenyl-sulfanylmethyl-propylamino)-3-trifluoromethanesulfonyl-benzenesulfonamide], the IC50 is 24 nM.

Turning to `O=S(=O)(Nc1nnc2n1CCN(C1CCN(Cc3ccccc3-c3ccc(Cl)cc3)CC1)C2)c1ccc(N[C@H](CCN2CCOCC2)CSc2ccccc2)c(S(=O)(=O)C(F)(F)F)c1` [Example 94], the IC50 came out at 405 nM.

On to `O=S(=O)(Nc1nnc2n1CCN(C1CCCN(Cc3ccccc3-c3ccc(Cl)cc3)CC1)C2)c1ccc(N[C@H](CCN2CCOCC2)CSc2ccccc2)c(S(=O)(=O)C(F)(F)F)c1` (stereo partly drawn) [Example 95, N-{7-[1-(4′-Chloro-biphenyl-2-ylmethyl)-azepan-4-yl]-5,6,7,8-tetrahydro-[1,2,4]triazolo[4,3-a]pyrazin-3-yl}-4-((R)-3-morpholin-4-yl-1-phenylsulfanylmethyl-propylamino)-3-trifluoromethanesulfonyl-benzenesulfonamide], for which the IC50 was found to be 1900 nM.

Take `CC1CC(N2CCn3c(nnc3NS(=O)(=O)c3ccc(N[C@H](CCN4CCOCC4)CSc4ccccc4)c(S(=O)(=O)C(F)(F)F)c3)C2)CCN1Cc1ccccc1-c1ccc(Cl)cc1` (stereo partly drawn) [Example 96, N-{7-[1-(4′-Chloro-biphenyl-2-ylmethyl)-2-methyl-piperidin-4-yl]-5,6,7,8-tetrahydro-[1,2,4]triazolo[4,3-a]pyrazin-3-yl}-4-((R)-3-morpholin-4-yl-1-phenylsulfanylmethyl-propylamino)-3-trifluoromethanesulfonyl-benzenesulfonamide]: the IC50 was 144 nM.

In the case of `CN(C)CC[C@H](CSc1ccccc1)Nc1ccc(S(=O)(=O)Nc2ncnc3c2CCN(C2CCN(Cc4ccccc4-c4cccc(Cl)c4)CC2)C3)cc1S(=O)(=O)C(F)(F)F` [Example 97, N-{7-[1-(3′-Chloro-biphenyl-2-ylmethyl)-piperidin-4-yl]-5,6,7,8-tetrahydro-pyrido[3,4-d]pyrimidin-4-yl}-4-((R)-3-dimethylamino-1-phenylsulfanylmethyl-propylamino)-3-trifluoromethanesulfonyl-benzenesulfonamide], the 50% inhibitory concentration (IC50) was found to be 49 nM.

With `CN(C)CC[C@H](CSc1ccccc1)Nc1ccc(S(=O)(=O)Nc2ncnc3c2CCN(C2CCN(Cc4ccccc4-c4ccccc4Cl)CC2)C3)cc1S(=O)(=O)C(F)(F)F` [Example 98], the IC50 amounted to 36 nM.

`CN(C)CC[C@H](CSc1ccccc1)Nc1ccc(S(=O)(=O)Nc2ncnc3c2CCN(C2CCN(Cc4ccccc4-c4ccc(C(F)(F)F)cc4)CC2)C3)cc1S(=O)(=O)C(F)(F)F` [Example 99, (R)-4-(4-(dimethylamino)-1-(phenylthio)butan-2-ylamino)-N-(7-(1-((4′-(trifluoromethyl)biphenyl-2-yl)-methyl)piperidin-4-yl)-5,6,7,8-tetrahydropyrido[3,4-d]pyrimidin-4-yl)-3-(trifluoromethylsulfonyl)benzenesulfonamide]: the IC50 worked out at 37 nM.
